In ChEMBL document CHEMBL3727356, “Therapeutic compounds and compositions” (2014):

Legend:
[1] = target: Pyruvate kinase PKLR (Homo sapiens, UniProt P30613, R532W); assay: Activation of PKR R532W mutant (unknown origin) incubated for 60 mins in presence of ADP, PEP and NADH by Spectraax microplate reader based assay
[2] = target: T1, Pyruvate kinase PKLR (Homo sapiens, UniProt P30613); assay: Activation of wild type PKR (unknown origin) incubated for 60 mins in presence of ADP, PEP and NADH by Spectraax microplate reader based assay
T1 sequence (P30613 whole entry): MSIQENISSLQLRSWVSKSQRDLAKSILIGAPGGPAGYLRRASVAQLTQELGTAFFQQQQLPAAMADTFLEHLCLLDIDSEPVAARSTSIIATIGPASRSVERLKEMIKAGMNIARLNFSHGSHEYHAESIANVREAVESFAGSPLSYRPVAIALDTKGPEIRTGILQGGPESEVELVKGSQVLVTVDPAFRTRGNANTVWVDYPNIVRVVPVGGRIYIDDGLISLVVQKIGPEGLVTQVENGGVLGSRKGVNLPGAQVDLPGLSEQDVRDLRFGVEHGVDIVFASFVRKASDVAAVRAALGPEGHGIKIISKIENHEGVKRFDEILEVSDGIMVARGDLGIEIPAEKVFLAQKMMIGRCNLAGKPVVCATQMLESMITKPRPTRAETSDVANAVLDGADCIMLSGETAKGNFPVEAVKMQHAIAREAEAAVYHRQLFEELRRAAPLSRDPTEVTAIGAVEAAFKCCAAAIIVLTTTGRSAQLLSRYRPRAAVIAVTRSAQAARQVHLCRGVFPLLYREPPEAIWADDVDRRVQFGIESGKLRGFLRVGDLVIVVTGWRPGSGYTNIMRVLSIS

[3] = target: T1, Pyruvate kinase PKLR; assay: Activation of wild type PKR (unknown origin) by cell based assay

Pyruvate kinase PKLR (Homo sapiens, UniProt P30613, R532W), sequence (P30613 whole entry R532W): as the sequence (P30613 whole entry) above, with R532W counted along it

Row | Compound | AC50 [1] [nM] | AC50 [2] [nM] | AC50 [3] [nM]
1 | Cc1noc(C)c1CC1(O)CCN(C(=O)c2ccc(NS(=O)(=O)c3cccc4scnc34)cc2)CC1 | < 100 | < 100 | 
2 | CC(C)CC1(CO)CCN(C(=O)c2ccc(NS(=O)(=O)c3cccc4nccnc34)cc2)CC1 | < 100 | < 100 | 
3 | O=C(c1ccc(NS(=O)(=O)c2cccc3nccnc23)cc1)N1CCC(O)(CCC(F)=C(F)F)CC1 | < 100 | < 100 | < 100
4 | COc1ccccc1C1(O)CCN(C(=O)c2ccc(NS(=O)(=O)c3cccc4cccnc34)cc2)CC1 | < 100 | < 100 | 
5 | COCCC1(O)CCN(C(=O)c2ccc(NS(=O)(=O)c3cccc4cccnc34)cc2)CC1 |  | < 100 | 
6 | O=C(c1ccc(NS(=O)(=O)c2cccc3ccccc23)cc1)N1CCC(O)(c2ccccc2Cl)CC1 | < 100 | < 100 | 
7 | O=C(c1ccc(NS(=O)(=O)c2cccc3ccoc23)cc1)N1CCC(O)(c2ccccc2Cl)CC1 | < 100 | < 100 | 
8 | CC(F)(F)CCC1(O)CCN(C(=O)c2ccc(NS(=O)(=O)c3cccc4nccnc34)cc2)CC1 |  | < 100 | < 100
9 | CS(=O)(=O)c1cccc(C2(O)CCN(C(=O)c3ccc(NS(=O)(=O)c4cccc5cccnc45)cc3)CC2)c1 |  | < 100 | < 100
10 | Cc1cc(CC2(O)CCN(C(=O)c3ccc(NS(=O)(=O)c4cccc5nccnc45)cc3)CC2)sn1 | < 100 | < 100 | 
11 | O=C(c1ccc(NS(=O)(=O)c2cccc3scnc23)cc1)N1CCC(O)(CC2CC2(F)F)CC1 (stereo not drawn) | < 100 | < 100 | 
12 | O=C(c1ccc(NS(=O)(=O)c2cccc3cccnc23)cc1)N1CCC(O)(c2cccnc2F)CC1 |  | < 100 | 
13 | CC(C)CC1(OC(=O)OCOP(=O)(O)O)CCN(C(=O)c2ccc(NS(=O)(=O)c3cccc4nccnc34)cc2)CC1 |  |  | < 100
14 | CC(C)CC1(CO)CCN(C(=O)c2ccc(NS(=O)(=O)c3cccc4scnc34)cc2)CC1 | < 100 | < 100 | 
15 | O=C(c1ccc(NS(=O)(=O)c2cccc3nccnc23)cc1)N1CCC(O)(CC2CC2)CC1 | < 100 | < 100 | 
16 | O=C(c1ccc(NS(=O)(=O)c2cccc3scnc23)cc1)N1CCC(O)(c2scnc2Cl)CC1 | < 100 | < 100 | 
17 | O=C(c1ccc(NS(=O)(=O)c2cccc3cccnc23)cc1)N1CCC(O)(/C=C/C(F)F)CC1 |  | < 100 | 
18 | CC(F)(F)CCC1(O)CCN(C(=O)c2ccc(NS(=O)(=O)c3cccc4nccnc34)cc2OC(F)F)CC1 | < 100 |  | 
19 | O=C(c1ccc(NS(=O)(=O)c2cccc3ocnc23)cc1)N1CCC(O)(c2ccccc2Cl)CC1 |  | < 100 | 
20 | CCOCC1(O)CCN(C(=O)c2ccc(NS(=O)(=O)c3cccc4cccnc34)cc2)CC1 | < 100 |  | 
21 | O=C(c1ccc(NS(=O)(=O)c2cccc3scnc23)cc1)N1CCC(O)(Cc2cn[nH]c2)CC1 | < 100 | < 100 | 
22 | Cn1nccc1CC1(O)CCN(C(=O)c2ccc(NS(=O)(=O)c3cccc4scnc34)cc2)CC1 | < 100 |  | 
23 | CC(C)(F)CC1(O)CCN(C(=O)c2ccc(NS(=O)(=O)c3cccc4scnc34)cc2)CC1 | < 100 |  | < 100
24 | O=C(c1ccc(NS(=O)(=O)c2cccc3cccnc23)cc1)N1CCC(O)(Cc2ccccn2)CC1 | < 100 | < 100 | 

Row | Compound | AC50 [1] [nM] | AC50 [2] [nM] | AC50 [3] [nM]
25 | CC(F)(F)CCC1(O)CCN(C(=O)c2ccc(NS(=O)(=O)c3cc(F)cc4sc(N)nc34)cc2F)CC1 |  | < 100 | 
26 | Cc1ccc(C2(O)CCN(C(=O)c3ccc(NS(=O)(=O)c4cccc5cccnc45)cc3)CC2)c(Cl)c1 | < 100 | < 100 | 
27 | Cc1n[nH]c(C)c1CC1(O)CCN(C(=O)c2ccc(NS(=O)(=O)c3cccc4scnc34)cc2)CC1 | < 100 | < 100 | 
28 | CC(F)(F)CCC1(O)CCN(C(=O)c2ccc(NS(=O)(=O)c3cccc4scnc34)cc2)CC1 | < 100 | < 100 | 
29 | O=C(c1ccc(NS(=O)(=O)c2cccc3nccnc23)cc1)N1CCC(O)(c2ccccc2)CC1 |  |  | < 100
30 | CC(C)CC1(O)CCN(C(=O)c2ccc(NS(=O)(=O)c3cc(F)cc4scnc34)cc2)CC1 | < 100 | < 100 | 
31 | O=C(c1ccc(NS(=O)(=O)c2cc(F)cc3cccnc23)cc1)N1CCC(O)(c2ccccc2)CC1 | < 100 | < 100 | 
32 | O=C(c1ccc(NS(=O)(=O)c2cc(F)cc3cccnc23)cc1)N1CCC(O)(c2ccccc2Cl)CC1 | < 100 | < 100 | 
33 | O=C(c1ccc(NS(=O)(=O)c2ccc(C(F)(F)F)cc2)cc1)N1CCC(O)(Cc2ccccc2)CC1 | > 10000 | > 10000 | 
34 | O=C(c1ccc(NS(=O)(=O)c2cccc3scnc23)cc1)N1CCC(O)(Cc2nc(Cl)cs2)CC1 |  | < 100 | 
35 | O=C(c1ccc(NS(=O)(=O)c2cccc3nccnc23)cc1)N1CCC(O)(CCC(F)(F)F)CC1 | < 100 | < 100 | 
36 | O=C(c1ccc(NS(=O)(=O)c2cccc3cnccc23)cc1)N1CCC(O)(c2ccccc2)CC1 | > 10000 | > 10000 | 
37 | O=C(c1ccc(NS(=O)(=O)c2cc(F)cc3scnc23)cc1)N1CCC(O)(c2ccccc2Cl)CC1 | < 100 | < 100 | 
38 | CC(C)CC1(OP(=O)(O)O)CCN(C(=O)c2ccc(NS(=O)(=O)c3cccc4scnc34)cc2)CC1 | > 10000 | > 10000 | 
39 | O=C(c1ccc(NS(=O)(=O)c2cccc3cccnc23)c2ccccc12)N1CCC(O)(c2ccccc2Cl)CC1 | < 100 | < 100 | 
40 | N#Cc1cccc(S(=O)(=O)Nc2ccc(C(=O)N3CCC(O)(Cc4ccccc4)CC3)cc2)c1 |  | > 10000 | 
41 | O=C(c1ccc(NS(=O)(=O)c2cccc3cccnc23)cc1)N1CCC(O)(Cc2cccnc2)CC1 | < 100 | < 100 | 
42 | CC(F)(F)CCC1(O)CCN(C(=O)c2ccc(NS(=O)(=O)c3cccc4scnc34)cc2OC(F)F)CC1 | < 100 | < 100 | 
43 | Nc1nc2c(S(=O)(=O)Nc3ccc(C(=O)N4CCC(O)(CCC(F)(F)F)CC4)cc3)cccc2s1 | < 100 | < 100 | 
44 | Cc1cccc(CC2(O)CCN(C(=O)c3ccc(NS(=O)(=O)c4cccc5cccnc45)cc3)CC2)n1 | < 100 | < 100 | 
45 | O=C(c1ccc(NS(=O)(=O)c2cccc3cccnc23)cc1)N1CCC(O)(c2ncccc2F)CC1 | < 100 | < 100 | 
46 | C=C(C)CC1(O)CCN(C(=O)c2ccc(NS(=O)(=O)c3cccc4scnc34)cc2)CC1 | < 100 | < 100 | 
47 | COc1cc(NS(=O)(=O)c2cccc3cccnc23)ccc1C(=O)N1CCC(O)(c2ccccc2Cl)CC1 | < 100 | < 100 | 
48 | O=C(c1ccc(NS(=O)(=O)c2cccnc2)cc1)N1CCC(O)(Cc2ccccc2)CC1 | > 10000 |  | 

Row | Compound | AC50 [1] [nM] | AC50 [2] [nM] | AC50 [3] [nM]
49 | Cn1cc(C2(O)CCN(C(=O)c3ccc(NS(=O)(=O)c4cccc5scnc45)cc3)CC2)cn1 | < 100 |  | < 100
50 | CC(C)CC1(O)CCN(C(=O)c2ccc(NS(=O)(=O)c3cccc4snnc34)cc2)CC1 | > 10000 | > 10000 | 
51 | O=C(c1ccc(NS(=O)(=O)c2cccc3ccc(F)nc23)cc1)N1CCC(O)(c2ccccc2Cl)CC1 | < 100 | < 100 | 
52 | CC(C)CC1(OC(=O)OCOP(=O)(O)O)CCN(C(=O)c2ccc(NS(=O)(=O)c3cccc4scnc34)cc2)CC1 |  |  | < 100
53 | CC(C)CC1(O)CCN(C(=O)c2ccc(NS(=O)(=O)c3cccc(O)c3N)cc2)CC1 |  | < 100 | < 100
54 | O=C(c1ncc(NS(=O)(=O)c2cccc3cccnc23)cn1)N1CCC(O)(c2ccccc2)CC1 |  | > 10000 | 
55 | O=C(c1ccc(NS(=O)(=O)c2cccc3scnc23)cc1)N1CCC(O)(CCC(F)=C(F)F)CC1 | < 100 | < 100 | 
56 | Cc1cc(C2(O)CCN(C(=O)c3ccc(NS(=O)(=O)c4cccc5nccnc45)cc3)CC2)sn1 | < 100 | < 100 | 
57 | Nc1c(O)cccc1S(=O)(=O)Nc1ccc(C(=O)N2CCC(O)(c3ccccc3Cl)CC2)cc1 |  | < 100 | < 100
58 | O=C(c1ccc(NS(=O)(=O)c2cccc3scnc23)cc1)N1CCC(O)(c2ccccc2C(F)F)CC1 | < 100 | < 100 | 
59 | Cc1cc(C2(O)CCN(C(=O)c3ccc(NS(=O)(=O)c4cccc5scnc45)cc3)CC2)sn1 | < 100 | < 100 | 
60 | O=C(c1ccc(NS(=O)(=O)c2cccc3scnc23)cc1)N1CCC(O)(CC2CC2)CC1 | < 100 | < 100 | 
61 | O=C(c1ccc(NS(=O)(=O)c2ccc(F)c3cccnc23)cc1)N1CCC(O)(Cc2ccccc2C(F)(F)F)CC1 | < 100 | < 100 | 
62 | COc1ncccc1C1(O)CCN(C(=O)c2ccc(NS(=O)(=O)c3cccc4cccnc34)cc2)CC1 | < 100 | < 100 | 
63 | O=C(c1ccc(NS(=O)(=O)c2cccc3nccnc23)cc1)N1CCC(O)(c2sncc2Cl)CC1 |  |  | < 100
64 | O=C(c1ccc(NS(=O)(=O)c2cccc3cccnc23)cc1)N1CCC(O)(c2ccccc2O)CC1 | < 100 |  | < 100
65 | O=C(c1ccc(NS(=O)(=O)c2cccc3cccnc23)cc1)N1CCC(O)(Cc2cccc(C(F)(F)F)c2)CC1 | < 100 | < 100 | 
66 | Cc1nc(C(=O)N2CCC(O)(c3ccccc3Cl)CC2)ccc1NS(=O)(=O)c1cccc2cccnc12 | < 100 | < 100 | 
67 | O=C(c1ccc(NS(=O)(=O)c2cccc3nccnc23)cc1)N1CCC(O)(Cc2cn[nH]c2)CC1 | < 100 | < 100 | 
68 | O=C(c1ccc(NS(=O)(=O)c2ccc(F)c3cccnc23)cc1)N1CCC(O)(CC2CCC2)CC1 | < 100 | < 100 | 
69 | Cc1nc(C2(O)CCN(C(=O)c3ccc(NS(=O)(=O)c4cccc5cccnc45)cc3)CC2)ccc1F | < 100 | < 100 | 
70 | CC(C)(O)CCCC1(O)CCN(C(=O)c2ccc(NS(=O)(=O)c3cccc4nccnc34)cc2)CC1 | > 10000 | > 10000 | 
71 | Cc1n[nH]c(C)c1CC1(O)CCN(C(=O)c2ccc(NS(=O)(=O)c3cccc4nccnc34)cc2)CC1 | < 100 | < 100 | 
72 | Cn1cc(CC2(O)CCN(C(=O)c3ccc(NS(=O)(=O)c4cccc5scnc45)cc3)CC2)cn1 | < 100 |  | 
